The assay concerns L1210 leukemia ip in BDF1 mice, survival T/C. The assay can be described thus: NCI In Vivo Anticancer Drug Screen. Data for tumor model L1210 Leukemia (intraperitoneal) in B6D2F1 (BDF1) mice. Conditions: endpoint: mean survival time, higher = longer survival. A digest of the protocol:
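Read-out is survival time, reported as the treated-group measurement over the vehicle-control measurement.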

[1] abbreviates: dose: 100.0 mg/kg/injection, schedule: Q04DX003 (ip), vehicle: saline with Tween-80.
Setting [2] is: dose: 200.0 mg/kg/injection, schedule: Q04DX003 (ip), vehicle: saline with Tween-80.
Where [3] appears, read: dose: 400.0 mg/kg/injection, schedule: Q04DX003 (ip), vehicle: saline with Tween-80.
Setting [4] is: dose: 100.0 mg/kg/injection, schedule: Q04DX002 (ip), vehicle: Klucel (hydroxypropylcellulose) (HPC).
[5] abbreviates: dose: 200.0 mg/kg/injection, schedule: Q04DX002 (ip), vehicle: Klucel (hydroxypropylcellulose) (HPC).
Where [6] appears, read: dose: 400.0 mg/kg/injection, schedule: Q04DX002 (ip), vehicle: Klucel (hydroxypropylcellulose) (HPC).
The mark [7] stands for this setting: dose: 400.0 mg/kg/injection, schedule: Q01DX009 (ip), vehicle: saline with Tween-80.
Where [8] appears, read: dose: 100.0 mg/kg/injection, schedule: Q01DX009 (ip), vehicle: Klucel (hydroxypropylcellulose) (HPC).
The mark [9] stands for this setting: dose: 200.0 mg/kg/injection, schedule: Q01DX009 (ip), vehicle: Klucel (hydroxypropylcellulose) (HPC).
[10] abbreviates: dose: 400.0 mg/kg/injection, schedule: Q01DX009 (ip), vehicle: Klucel (hydroxypropylcellulose) (HPC).
[11] abbreviates: dose: 100.0 mg/kg/injection, schedule: Q04DX003 (ip), vehicle: Klucel (hydroxypropylcellulose) (HPC).
[12] abbreviates: dose: 200.0 mg/kg/injection, schedule: Q04DX003 (ip), vehicle: Klucel (hydroxypropylcellulose) (HPC).
The mark [13] stands for this setting: dose: 400.0 mg/kg/injection, schedule: Q04DX003 (ip), vehicle: Klucel (hydroxypropylcellulose) (HPC).

Molecules are shown by their SMILES. Where “and” joins values, the source holds several entries; their conditions need not be identical. Equal values may be shown once. Toxic doses and inconclusive results are not listed.

Turning to `CC(C)CCCC(C)C1CCC2C3CC=C4CC(OC(=O)c5cc([N+](=O)[O-])c(N6CC6)c([N+](=O)[O-])c5)CCC4(C)C3CCC12C` (centres undefined), the T/C was 110 % of control (dose: 50.0 mg/kg/injection, schedule: Q01DX001 (sc), vehicle: steriod suspending solution); 96 % of control (dose: 100.0 mg/kg/injection, schedule: Q01DX001 (sc), vehicle: steriod suspending solution); 102 % of control (dose: 200.0 mg/kg/injection, schedule: Q01DX001 (sc), vehicle: steriod suspending solution); 96 % of control (dose: 400.0 mg/kg/injection, schedule: Q01DX001 (sc), vehicle: steriod suspending solution).
As for `CC(=O)C(C(=N)C#N)C(=O)Nc1ccccc1` (centres undefined), the T/C reads like this: under setting [1], 101 % of control; under setting [2], 104 % of control; under setting [3], 101 % of control.
In the case of `O=C1CN=C(c2ccccc2Cl)c2cc([N+](=O)[O-])ccc2N1`, the T/C was 93 % of control under setting [4], 108 % of control under setting [5] and 86 % of control under setting [6].
Consider `NC(=S)N/N=C/C=N/NC(N)=S`, for which the T/C is 97 % of control (dose: 50.0 mg/kg/injection, schedule: Q01DX001 (ip), vehicle: carboxymethylcellulose (CMC)); 91 % of control (dose: 100.0 mg/kg/injection, schedule: Q01DX001 (ip), vehicle: carboxymethylcellulose (CMC)); 95 % of control (dose: 200.0 mg/kg/injection, schedule: Q01DX001 (ip), vehicle: carboxymethylcellulose (CMC)); 101 % of control (dose: 400.0 mg/kg/injection, schedule: Q01DX001 (ip), vehicle: carboxymethylcellulose (CMC)); 107 % of control (dose: 1.0 micrograms/kg/injection, schedule: Q01DX009 (ip), vehicle: carboxymethylcellulose (CMC)); 98 % of control (dose: 5.0 micrograms/kg/injection, schedule: Q01DX009 (ip), vehicle: carboxymethylcellulose (CMC)).
With `O=C(Nc1ccc(C2=NCCCN2)cc1)c1ccc(C(=O)Nc2ccc(C3=NCCCN3)cc2)c(Cl)c1`, the T/C (dose: 0.04 mg/kg/injection, schedule: Q01DX015 (ip), vehicle: water) was 98 % of control; the T/C (dose: 0.09 mg/kg/injection, schedule: Q01DX015 (ip), vehicle: water) is 101 % of control; the T/C (dose: 0.18 mg/kg/injection, schedule: Q01DX015 (ip), vehicle: water) is 95 % of control; the T/C (dose: 0.37 mg/kg/injection, schedule: Q01DX015 (ip), vehicle: water) was 101 % of control; the T/C (dose: 0.75 mg/kg/injection, schedule: Q01DX015 (ip), vehicle: water) was 107 % of control.
On to `Cc1cn(O)c2nc(N)nc(=O)c-2n1`, for which the T/C reads like this: (dose: 25.0 mg/kg/injection, schedule: Q01DX001 (ip), vehicle: Klucel (hydroxypropylcellulose) (HPC)) 97 % of control; (dose: 50.0 mg/kg/injection, schedule: Q01DX001 (ip), vehicle: Klucel (hydroxypropylcellulose) (HPC)) 103 % of control; (dose: 100.0 mg/kg/injection, schedule: Q01DX001 (ip), vehicle: Klucel (hydroxypropylcellulose) (HPC)) 100 % of control and 101 % of control.
With `NC(=O)CC(NC(=O)OCc1ccccc1)c1nn[nH]n1` (centres undefined), the T/C is 104 % of control (dose: 100.0 mg/kg/injection, schedule: Q01DX009 (ip), vehicle: saline with Tween-80); 91 % of control under setting [1]; 106 % of control (dose: 200.0 mg/kg/injection, schedule: Q01DX009 (ip), vehicle: saline with Tween-80); 102 % of control under setting [2]; 98 % of control under setting [7]; 91 % of control under setting [3].
As for `CC(C)c1ccc(/C=N/NC(=O)c2ccc[n+](C)c2)cc1`, the T/C by setting is: (dose: 12.5 mg/kg/injection, schedule: Q01DX009 (ip), vehicle: saline) 94 % of control; (dose: 25.0 mg/kg/injection, schedule: Q01DX009 (ip), vehicle: saline) 98 % of control; (dose: 50.0 mg/kg/injection, schedule: Q01DX009 (ip), vehicle: saline) 112 % of control and 91 % of control.
`O=C1OC(c2ccc([N+](=O)[O-])cc2)=N/C1=C\c1ccc(O)cc1`: the T/C runs as follows: under setting [8], 96 % of control; under setting [9], 96 % of control; under setting [10], 90 % of control.
As for `C#CCOC(=O)Nc1cccc(Cl)c1`, the T/C under setting [8] was 95 % of control; the T/C under setting [11] was 97 % of control; the T/C under setting [9] was 97 % of control; the T/C under setting [12] was 106 % of control; the T/C under setting [10] was 95 % of control; the T/C under setting [13] was 90 % of control.
As for `COc1cc([N+](=O)[O-])cc2c(C)cc(=O)[nH]c12`, the T/C was 95 % of control (dose: 100.0 mg/kg/injection, schedule: Q01DX001 (ip), vehicle: saline); 103 % of control (dose: 100.0 mg/kg/injection, schedule: Q01DX009 (ip), vehicle: saline); 99 % of control (dose: 200.0 mg/kg/injection, schedule: Q01DX001 (ip), vehicle: saline); 92 % of control (dose: 200.0 mg/kg/injection, schedule: Q01DX009 (ip), vehicle: saline); 93 % of control (dose: 400.0 mg/kg/injection, schedule: Q01DX001 (ip), vehicle: saline); 93 % of control (dose: 400.0 mg/kg/injection, schedule: Q01DX009 (ip), vehicle: saline).
Consider `COc1cc(C=O)cc(O)c1O`, for which the T/C is 96 % of control (dose: 62.5 mg/kg/injection, schedule: Q01DX Z (ip), vehicle: saline) and 124 % of control (dose: 500.0 mg/kg/injection, schedule: Q01DX Z (ip), vehicle: saline).
On to `CC(C)OCCS(=O)(=O)Oc1ncc(Cl)cc1Cl`, for which the T/C by setting is: (dose: 12.5 mg/kg/injection, schedule: Q01DX009 (ip), vehicle: saline with Tween-80) 113 % of control; (dose: 25.0 mg/kg/injection, schedule: Q01DX009 (ip), vehicle: saline with Tween-80) 94 % of control; (dose: 50.0 mg/kg/injection, schedule: Q01DX009 (ip), vehicle: saline with Tween-80) 96 % of control; under setting [1], 94 % of control; under setting [2], 96 % of control; under setting [7], 90 % of control. For the same compound, under setting [3], the T/C was 94 % of control.
In the case of `CN(CCO)C1=C(N2CC2)C(=O)C(N(C)CCO)=C(N2CC2)C1=O`, the T/C runs as follows: (dose: 0.12 mg/kg/injection, schedule: Q01DX001 (ip), vehicle: saline) 103 % of control; (dose: 0.12 mg/kg/injection, schedule: Q01DX009 (ip), vehicle: saline) 104 % of control and 105 % of control; (dose: 0.24 mg/kg/injection, schedule: Q04DX003 (ip), vehicle: saline) 119 % of control; (dose: 0.25 mg/kg/injection, schedule: Q01DX001 (ip), vehicle: saline) 100 % of control; (dose: 0.25 mg/kg/injection, schedule: Q01DX009 (ip), vehicle: saline) 121 % of control; (dose: 0.5 mg/kg/injection, schedule: Q01DX001 (ip), vehicle: saline) 112 % of control. Also, the T/C reads like this: (dose: 0.55 mg/kg/injection, schedule: Q04DX003 (ip), vehicle: saline) 122 % of control; (dose: 1.0 mg/kg/injection, schedule: Q01DX009 (ip), vehicle: saline) 184 % of control and 214 % of control; (dose: 1.5 mg/kg/injection, schedule: Q04DX003 (ip), vehicle: saline) 111 % of control; (dose: 3.0 mg/kg/injection, schedule: Q04DX003 (ip), vehicle: saline) 97 % of control.
Turning to `CSc1nc(Cl)cc2c1ncn2C1OC(CO)C(O)C1O` (centres undefined), the T/C (dose: 100.0 mg/kg/injection, schedule: Q01DX005 (ip), vehicle: saline) was 100 % of control and the T/C (dose: 200.0 mg/kg/injection, schedule: Q01DX005 (ip), vehicle: saline) is 100 % of control.
For the compound `Cc1ccc(NC(=S)N2CCCC(C)C2)cc1C` (centres undefined), the T/C by setting is: under setting [8], 102 % of control; under setting [9], 100 % of control; under setting [10], 102 % of control.
For `Cc1cccc(NC(=O)c2ccccc2C(=O)O)c1C`, the T/C under setting [8] was 98 % of control; the T/C under setting [11] is 98 % of control; the T/C under setting [9] is 93 % of control; the T/C under setting [12] is 95 % of control; the T/C under setting [10] is 96 % of control; the T/C under setting [13] is 93 % of control.
In the case of `CCCCCCCCCCCCSC1=NS(=O)(=O)c2ccccc21`, the T/C is 106 % of control under setting [11], 94 % of control under setting [12] and 90 % of control under setting [13].
Regarding `COC1OC2COc3ccccc3OC2C2NC12` (centres undefined), the T/C by setting is: under setting [4], 98 % of control; under setting [5], 105 % of control; under setting [6], 102 % of control.

For the origin of these results see PubChem BioAssay AID248 (DTP/NCI, 2004).
